Test results reported in US20080039434A1, “Treatment of Interstitial Cystitis with Vitamin D Compounds” (BioXell S. p.A., priority 2004, published 2008).

Columns and labels:
MMCP4 = assay: Taq-Man analysis of bladder mRNA, allergic IC in mice: MMCP4; assay type: in vivo, mouse; details: ovalbumin challenged vs vehicle; oral ug/kg: E 0.3, F 30, H 1, I 3; H, I p<0.05, E, F p<0.001
Method: (§1) Mice (BALB/c, females 8 weeks old, weight 18-20 g, Charles River, Calco ITA) were sensitized by injecting 10 ug/mouse of chicken ovalbumin from Sigma (OVA, grade V) in the presence of 4 mg of alum (SERVA, Germany) by intraperitoneal injection, once a week for 4 weeks. This induces a sustained level of IgE detectable in serum.
(§2) One or two weeks after the last immunization boost, sensitized mice were anesthetized (1.5% Isoflurane) and then trans-urethrally catheterized (24 gauge, ¾ in.; Angiocath, Becton-Dickson). Slight digital pressure was applied the lower abdomen to drain the urine.
(§3) The urinary bladders were instilled with either 150 ul of either saline or OVA alone, (1 mg/150 ul) infused at a slow rate to avoid trauma and vesico-ureteral reflux and repeated twice within a 30-min interval with the syringe kept in place on the catheter for at least 30 min. Intravesical challenge was repeated 7-10 days after the first one with the same procedure.
(§4) An ethanol stock solution of Compound B (1 mg/ml) was dissolved in Miglyol vehicle at the appropriate concentration. Control animals received the vehicle containing the same amount of ethanol. Drug (or vehicle) treatment was carried out by daily gavage after weighing the animal. Drug solution was prepared calculating a final volume of 100 ul/10 grams body weight, and treatment was started on the day of the first intravesical ovalbumin challenge, maintained daily, but discontinued over the weekends, for 12 days total treatment. FIG. 7 illustrates the timeline of the experiment.
(§5) Total RNA was extracted from one half of bladder by using RNeasy Mini kit (Qiagen), treated with DNase 1 (Qiagen) and reverse transcription performed with Reverse Transcription Reagent (Applied Biosystems) with Random Hexamers (according to the manufacturer's instructions). cDNA was synthesized from 1 ug of RNA. Real-Time PCR was performed in 96-well optical reaction plates (Applied Biosystems). For each sample we amplified both the target gene and the housekeeping gene (HPRT) in different wells (singleplex) and in duplicate. The amplification Master Mix was prepared according to the following protocol (volumes refer to a single well with a final volume of 40 ul/well)): 2× TaqMan® R Universal PCR Master Mix (Applied Biosystems, 4304437): 20 ul; 20× Assay target gene: 2 ul; H2O: 8 ul; cDNA: 10 ul. Reaction was run on an SDS 7000 (Applied Biosystems) instruments, with the following amplification program: 2′ at 50° C.; 10′ at 95° C.; 15″ at 95° C. and 1′ at 60° C. for 40 cycles; Cycle threshold (Ct) values were exported into Excel Worksheets for analysis and relative quantitations were performed using the ΔCt method. All primers used carried the FAM reporter.
(§6) Experiments in Example 7 were performed according to the general procedures described previously in Example 6. Mice were challenged with saline (untreated) or ovalbumin (treatment with vehicle or one of Compounds C-I at a dosage indicated in Table 6 in ug/kg).

IL-13 = assay: Taq-Man analysis of bladder mRNA, allergic IC in mice: IL-13; assay type: in vivo, mouse; details: ovalbumin challenged vs vehicle; oral ug/kg: E 0.3, F 30, H 1, I 3; H, I p<0.05, E, F p<0.001
Method: as §1, §2, §3, §4, §5, §6

[1] = Calcemia assessment in allergic IC mice (colorimetric serum calcium assay); assay type: in vivo, mouse; details: oral ug/kg: C 3, A 0.1, E 0.3, F 30, G 100, H 1, I 3; elevations p<0.001
Method: Serum calcemia was evaluated by a commercially available colorimetric assay (Calcium Dry-Fast, Sentinel CH. Italy). Briefly, 10 ul serum were added to 100 ul reaction solution prepared according to the manufacturer's procedure in a 96-wells plate. After 5 min incubation at RT samples were read at 570 nm with a spectrophotometer and the calcium levels were calculated in triplicate by using a standard reference as directed.

[2] = system: ovalbumin-challenged mouse bladder; assay: Blind histological analysis of bladder sections, allergic IC in mice; assay type: in vivo; details: p<0.05; for number of LMPC in the bladder wall: oral ug/kg: E 0.3, I 3, vs vehicle
Method: as §1, §2, §3, §4
Bladders were explanted from the animals, longitudinally divided in two moieties, one half was either immediately fixed in formalin (10% buffered) for at least 3 hrs or snap frozen in liquid nitrogen upon inclusion in OCT freezing medium (Tissue-Tek Sakura). For histological analysis, fixed bladders were further processed and finally paraffin embedded. Five um sections were serially cut then stained with GIEMSA (BDH, 20% solution, 3 hrs RT) and then de-stained in 0.1% acetic acid for 10 sec. After a clarification step in Xylene, slides were permanently mounted with Eukitt medium and analyzed by a pathologist in a blinded fashion in order to evaluate for inflammatory cell infiltrate, mast cell numbers, and the presence of interstitial edema. A semi-quantitative histological score was used, assigning: 1 for mild infiltrate, no edema; 2 for intermediate infiltration, little edema; and 3 for severe infiltration and edema.
as §6

[3] = system: allergen-induced chronic bladder inflammation; assay: Efficacy ranking in the allergen-induced chronic bladder inflammation model of interstitial cystitis; assay type: in vivo, mouse; details: each compound at its tested dosage
Method: as §6
Summarizing all the results presented above in Example 7, we can conclude that these compounds can be ranked with respect to their efficacy in reducing several parameters measuring inflammation of the bladder in the allergen-induced chronic bladder inflammation model of interstitial cystitis.

FcεR1α = assay: Taq-Man analysis of bladder mRNA, allergic IC in mice: FcεR1α; assay type: in vivo, mouse; details: ovalbumin challenged vs vehicle; oral ug/kg: E 0.3, F 30, H 1; E, H p<0.05, F p<0.001
Method: as §1, §2, §3, §4, §5, §6

MMCP1 protein = assay: Serum level of mast-cell derived chymase MMCP1 protein, allergic IC in mice; assay type: in vivo, mouse; details: ovalbumin challenged vs vehicle; oral ug/kg: A 0.1, E 0.3, F 30; F p<0.05, A, E p<0.001
Method: as §1, §2, §3
Treatment Group: 10 mice were treated with oral vitamin D3 analogue (1-alpha-fluoro-25-hydroxy-16,23Ediene-26,27-bishomo-20-epi-cholecalciferol) Compound “B” for 14 days (daily dose of either 30 or 75 ug/kg).
as §4, §6

BPH cells = details: previously found; cited from earlier work
[4] = system: patients with interstitial cystitis; details: oral administration, long term basis; cited from earlier work

Row | serum calcium levels relative to the vehicle treated control group [1] | Compound | mRNA expression level of MMCP4 gene (MMCP4) | mRNA expression level of the IL-13 gene (IL-13) | number of LMPC in the bladder wall [2] | Efficacy ranking in reducing parameters of bladder inflammation [3] | mRNA expression level of the FcεR1α gene (FcεR1α) | serum level of the MMCP1 protein (MMCP1 protein) | numbers of mast cells in the bladder wall ([2]; 3 ug/kg oral vs vehicle) | BPH cell proliferation (BPH cells) | mitogenic activity of growth factors KGF and IGF1 for BPH cells (BPH cells) | patients who show a beneficial effect [4]
1 | slight elevation | CC(C)(O)CCCC(CCCC(C)(C)O)[C@H]1CC[C@H]2/C(=C/C=C3C[C@@H](O)C[C@H](O)C3)CCC[C@]12C [Compound I, 1,25-dihydroxy-21-(3-hydroxy-3-methylbutyl)-19-nor-cholecalciferol] | statistically significant reductions | statistically significant reductions | significant reduction | Compound E>Compound F>Compound B>Compound H>Compound I>Compound A>Compound A=Compound G |  |  |  |  |  | 
2 | slight elevation | C=C1/C(=C\C=C2/CCC[C@@]3(C)C2CCC3C2(CCCC(C)(C)O)CC2)CC(OC(C)=O)C[C@@H]1OC(C)=O (stereo partly shown) [Compound F, 1,3-Di-O-acetyl-1,25-dihydroxy-20-cyclopropyl-cholecalciferol] | statistically significant reductions | statistically significant reductions |  | Compound E>Compound F>Compound B>Compound H>Compound I>Compound A>Compound A=Compound G | statistically significant reductions | statistically significant reduction |  |  |  | 
3 | slight elevation | C=C1/C(=C\C=C2/CCC[C@]3(C)C(C4(CCCC(C)(C)O)CC4)=CCC23)CC(O)C[C@@H]1O (stereo partly drawn) [Compound H, 1α,25-Dihydroxy-16-ene-20-cyclopropyl-cholecalciferol] | statistically significant reductions | statistically significant reductions |  | Compound E>Compound F>Compound B>Compound H>Compound I>Compound A>Compound A=Compound G | statistically significant reductions |  |  |  |  | 

The remaining lines, values behind:

Row | Compound | serum calcium levels relative to the vehicle treated control group [1] | mRNA expression level of MMCP4 gene (MMCP4) | mRNA expression level of the IL-13 gene (IL-13) | number of LMPC in the bladder wall [2] | Efficacy ranking in reducing parameters of bladder inflammation [3] | mRNA expression level of the FcεR1α gene (FcεR1α) | serum level of the MMCP1 protein (MMCP1 protein) | numbers of mast cells in the bladder wall ([2]; 3 ug/kg oral vs vehicle) | BPH cell proliferation (BPH cells) | mitogenic activity of growth factors KGF and IGF1 for BPH cells (BPH cells) | patients who show a beneficial effect [4]
4 | CC(=O)OC1C/C(=C/C=C2\CCC[C@]3(C)C(C(C)CCCC(C)(C)O)=CCC23)C[C@@H](OC(C)=O)C1 (stereo partly shown) [Compound C, 1,3-Di-O-acetyl-1,25-dihydroxy-16-ene-19-nor-cholecalciferol] | slight elevation |  |  |  |  |  |  | significantly reduced numbers |  |  | 
5 | C=C1CC[C@H](O)C/C1=C/C=C1\CCC[C@]2(C)[C@@H]([C@H](C)CCCC(C)C)CC[C@@H]12 [vitamin D3] |  |  |  |  |  |  |  |  | inhibited | counteracted | 
6 | pentosan polysulphate sodium [PPS] |  |  |  |  |  |  |  |  |  |  | less than 20%
7 | CC(=O)OC1C/C(=C/C=C2\CCC[C@@]3(C)C2CCC3C2(C/C=C/C(O)(C(F)(F)F)C(F)(F)F)CC2)C[C@@H](OC(C)=O)C1 (stereo partly shown) [Compound E, 1,3-Di-O-acetyl-1,25-dihydroxy-20-cyclopropyl-23E-ene-26,27-hexafluoro-19-nor-cholecalciferol] | slight elevation | statistically significant reductions | statistically significant reductions | significant reduction | Compound E>Compound F>Compound B>Compound H>Compound I>Compound A>Compound A=Compound G | statistically significant reductions | statistically significant reduction |  |  |  | 
